Experimental data: patent US20090170845A1, “USE OF IMIDAZO[2,1-b]-1,3,4-THIADIAZOLE-2-SULFONAMIDE COMPOUNDS TO TREAT NEUROPATHIC PAIN” (AEGERA THERAPEUTICS INC., priority 2006, published 2009)

How the values were obtained:
Type in all cases: in vivo, rat
diabetic rats = assay: Tactile allodynia (von Frey) in diabetic rats (DN); details: for neuropathic pain in diabetic rats: subcutaneous and/or oral delivery routes; for established neuropathic pain state in diabetic rats: Study 2, 10 mg/kg sc for 14 consecutive days
Experimental: The effects of compounds 150, 155, 157 and 158 on neuropathic pain responses characterized by tactile allodynia in diabetic rats were examined. A blinded reversal interventional paradigm was applied to evaluate the compounds, with therapy initiated when an aberrant pain state was clearly established. The effects of single or repeat (5 or two days per week) dosing regimen were assessed as described.
Rats (female Sprague Dawley; 250-270 g) were rendered diabetic with the commercially available agent streptozotocin and, were compared to vehicle-treated age matched controls, maintained for up to 6 weeks or more. Standard physiologic parameters (body weight and blood glucose) were recorded before, during and after the study to assess the metabolic status of animals.
Study 1: Both normal and diabetic groups were divided into two groups of 12 and received either vehicle or Compound 150 in 20% HPCD (10 mg/kg, sc) 5 days per week, for two weeks. Standard indices of sensory nerve function (tactile response threshold) were measured at baseline, prior to drug treatments, 48 hours after the 5th dose, and again prior to sacrifice (after the 10th dose) along with the standard physiologic parameters of body weight and plasma glucose.
Study 2: As per Study 1, except animals were treated with either compound 157 or 158 in 20% HPCD (10 mg/kg, sc) for 14 consecutive days.
Study 3: After 1 month of diabetes rats were treated subcutaneously with a single administration of 150, 155, 157, 154, 158 or 160 in 20% HPCD, as indicated; orally by gavage with a single administration of 157, or for 5 consecutive days by oral gavage with 157 and 158 to assess cumulative effects. The effect of the compounds was assessed 6 hours after the single or final administration.
Detailed methods for performing the behavioral tasks can be found in Journal of Neuroscience Methods (1994), 53: 55-63 and Methods in Molecular Medicine, Volume 99: Pain Research: methods and protocols, edited by Z. D. Luo, Humana Press Inc., Totowa, N.J.

[1] = test system: Complete Freund's Adjuvant (CFA) model of hyperalgesia in rats; assay: CFA-induced tactile hyperalgesia in rats; details: for activity in CFA model of hyperalgesia: subcutaneous and/or oral delivery
Excerpt: Complete Freund's Adjuvant (CFA) was used to induce an inflammatory response, resulting in hyperalgesia. This model was chosen as a second experimental paradigm to obtain direct evidence for activity of the compounds against pain states because of its link with the induction of aberrant JNK phosphorylation, and evidence that this signaling cascade appears to, at least in part, mediate the pain response in this model (Doya et al., 2005).
Female Sprague Dawley rats were given either vehicle or Compound 150 (10 mg/kg, sc), 155 (1-10 mg/kg, sc), 157 (1-10 mg/kg, sc; 10-40 mg/kg, po) or 158 (10 mg/kg, sc) 6 hours prior to pain testing (compounds 150, 155, 157, and 158 were dissolved in 20% HPCD at 1-10 mg/mL). Compound 157 was also tested under conditions of repeat dosing where it was given at 5-20 mg/kg, po for five consecutive days. Under all treatment conditions, a single injection of CFA (50 uL) was given into the plantar surface of the right hind paw 1 hour prior to pain testing (i.e., 5 hours after the final administration of compound). Immediately after the CFA injection, animals were placed in testing chambers with a wire mesh bottom to habituate. Standard von Frey filaments were used to assess tactile response thresholds. The left, un-injected paw served as a control. Fibers were applied in the manner described by Dixon (1980) using the up-down method. The 50% withdrawal threshold (in grams) was determined for each paw.

[2] = test system: STZ treated diabetic rats; assay: Sensory nerve conduction velocity (SNCV) in STZ diabetic rats, reversal paradigm, 2 months treatment
Excerpt: (§1) The effects of Compound 150 on nerve conduction (both motor and sensory) and axonal atrophy were examined in diabetic rats. A blinded reversal interventional paradigm was applied to evaluate two related small molecules on established experimental rat diabetic peripheral neuropathy of 2 months duration given over a subsequent 2 months, specifically evaluating motor and sensory conduction and sural axon caliber.
(§2) Male Sprague-Dawley rats (200-300 g) raised on sawdust covered plastic cages in a room with normal light dark timing and fed with standard rat chow were used for this experiment. The protocol was reviewed and approved by the University of Calgary Animal Care Committee adhering to the guidelines of the Canadian Council on Animal Care (CCAC). Diabetes was induced by a single intraperitoneal injection of streptozotocin (STZ) in citrate buffer (65 mg/kg) with age-matched controls given the buffer without STZ. Animals were used for the study if fasting glucose levels 5-7 days later were ≧16.0 mmol/L (One Touch FasTake strips, Johnson and Johnson).
(§3) Treatments were applied after 2 months of hyperglycemia for a duration of 2 months. Motor conduction recordings (1-3) were made prior to intervention then after […]. Sensory conduction utilized the approach of Parry and Kozu involving stimulation of the digital branches of the sciatic nerve and recording from the sciatic nerve at the level of the popliteal fossa with near nerve temperature maintained at 37° C. (4).
(§4) For statistical analysis, we studied mean values with standard errors of the means and compared values in the interventional groups with one way ANOVA or repeated measures ANOVA and post hoc Student's t-tests.

[3] = test system: STZ treated diabetic rats; assay: Motor nerve conduction velocity (MNCV) in STZ diabetic rats, reversal paradigm, 2 months treatment
Excerpt: as §1, §2, §3, §4

[4] = test system: STZ treated diabetic rats; assay: Sural nerve myelinated axon morphometry in STZ diabetic rats; details: 5 of 7 days, 2 months of treatment
Experimental: as §2
At endpoint (4 months of diabetes, 2 months of treatment) the rats were euthanized and sural nerves harvested for morphometric studies. Sural nerves were fixed in cacodylate buffered glutaraldehyde, dehydrated with alcohols, fixed in osmium tetroxide then embedded in epon to generate one micron sections, as in previous work (5,6). Sections were photographed under oil immersion (1000×) to sample the entire sural nerve. Images were analyzed using Scion image offline to measure axon area for 100 myelinated axons for each sural nerve fascicle. […] For sural nerves with more than one fascicle, each fascicle underwent separate analysis and a mean axon area was calculated for the rat from the fascicles. […]

[5] = sc, acute single, 6 hours after administration
[6] = po, 5 d loading (5 consecutive days)
[7] = po, 5 d loading (repeated dosing)

O=S(=O)([N-][Na+])c1nn2cc(-c3ccc4c(c3)OCCCO4)nc2s1 [Compound 155]
DN, effective dose (diabetic rats; sc, acute single): ≤ 10 mg/kg
DN (effect on tactile allodynia in diabetic rats) (diabetic rats; [5]): Effects of single administrations were observed and +ve
neuropathic pain in diabetic rats (diabetic rats): can reverse neuropathic pain
CFA (effect on tactile hyperalgesia) ([1]; sc, acute single): attenuated CFA-induced tactile hyperalgesia and +ve
activity in CFA model of hyperalgesia [1]: active

O=S(=O)([N-][Na+])c1nn2cc(-c3ccc(Cl)c(Cl)c3Cl)nc2s1 [Compound 154]
DN (effect on tactile allodynia in diabetic rats) (diabetic rats; [5]): Effects of single administrations were observed and +ve
neuropathic pain in diabetic rats (diabetic rats): can reverse neuropathic pain

CC(C)(C)c1ccc(-c2cn3nc(S(=O)(=O)[N-][Na+])sc3n2)cc1 [Compound 158]
established neuropathic pain state in diabetic rats (diabetic rats): reversed an established neuropathic pain state
DN (effect on tactile allodynia in diabetic rats) (diabetic rats; [6]): equivalent efficacy was observed and +ve
DN, effective dose (diabetic rats; [7]): 5 to 10 mg/kg
DN, effective dose (diabetic rats; sc, acute single): ≤ 10 mg/kg
DN (effect on tactile allodynia in diabetic rats) (diabetic rats; [5]): Effects of single administrations were observed and +ve
neuropathic pain in diabetic rats (diabetic rats): can reverse neuropathic pain
CFA (effect on tactile hyperalgesia) ([1]; sc, acute single): attenuated CFA-induced tactile hyperalgesia and +ve
CFA, effective dose ([1]; sc, acute single): ≤ 10 mg/kg
activity in CFA model of hyperalgesia [1]: active

O=S(=O)([N-][Na+])c1nn2cc(-c3cc(C(F)(F)F)ccc3Cl)nc2s1 [Compound 160]
DN, effective dose (diabetic rats; sc, acute single): 10 mg/kg
DN (effect on tactile allodynia in diabetic rats) (diabetic rats; [5]): Effects of single administrations were observed and +ve
neuropathic pain in diabetic rats (diabetic rats): can reverse neuropathic pain

O=S(=O)([N-][Na+])c1nn2cc(-c3ccc(-c4cccc(C(F)(F)F)c4)cc3)nc2s1 [Compound 150]
SNCV v vehicle treated diabetics at 2 months ([2]; 5 days/week): significantly better than vehicle treated diabetics
SNCV change from baseline to 2 months (within diabetic groups) ([2]; diabetic rats, 2 months of treatment): did not significantly change from baseline
SNCV, diabetics v normals after 2 months of treatment ([2]; dosed 2 days per week): did not confer similar protection
SNCV, diabetics v normals after 2 months of treatment ([2]; dosed 5 days per week): not significantly different from normals
SNCV v vehicle treated diabetics at 2 months ([2]; twice per week): did not afford similar protection
MNCV v vehicle treated diabetics at 2 months ([3]; 2×/week): significantly better than vehicle treated diabetics
MNCV change from baseline to 2 months (within diabetic groups) ([3]; 2 days per week): identical effects as the drug given 5 days per week
MNCV, diabetics v normals ([3]; 2 days per week): did not restore MNCV to normal
MNCV change from baseline to 2 months (within diabetic groups) ([3]; 5 days per week): significant improvement in MNCV
MNCV v vehicle treated diabetics at 2 months ([3]; 5 days per week): significantly better than vehicle treated diabetics
MNCV, diabetics v normals ([3]; 5 days per week): did not restore MNCV to normal
mean area of all measured sural myelinated axons, diabetics given compound vs. vehicle [4]: rise in mean axonal area
mean axonal area of large (greater than 9 microns squared) myelinated axons, diabetics given compound vs. vehicle [4]: significant increase in mean axonal area
response to tactile stimulation with multiple dosing (diabetic rats; Study 1, diabetic rats, 10 mg/kg sc 5 days per week for two weeks): consistently responding within the normal range
tactile allodynia six hours after the initial treatment (diabetic rats; Study 1, diabetic rats, 10 mg/kg sc in 20% HPCD): tactile allodynia was reversed
DN, effective dose (diabetic rats; sc, acute single): 10 mg/kg
DN (effect on tactile allodynia in diabetic rats) (diabetic rats; [5]): Effects of single administrations were observed and +ve
CFA (effect on tactile hyperalgesia) ([1]; sc, acute single): attenuated CFA-induced tactile hyperalgesia and +ve
activity in CFA model of hyperalgesia [1]: active

COCCOCCOc1ccc(-c2cn3nc(S(=O)(=O)[N-][Na+])sc3n2)cc1 [Compound 157]
established neuropathic pain state in diabetic rats (diabetic rats): reversed an established neuropathic pain state
duration of effect on pain after a single administration (diabetic rats; diabetic rats, single administration): 24 h
DN, effective dose (diabetic rats; po, 5 d loading): 5 to 10 mg
DN (effect on tactile allodynia in diabetic rats) (diabetic rats; [6]): equivalent efficacy was observed and +ve
DN, effective dose (diabetic rats; [7]): 5 to 10 mg/kg
DN, effective dose (diabetic rats; po, acute single): 10 to 20 mg/kg
DN (effect on tactile allodynia in diabetic rats) (diabetic rats; po, acute single, 6 hours after administration): Effects of single administrations were observed and +ve
DN, effective dose (diabetic rats; sc, acute single): <10 mg/kg
DN (effect on tactile allodynia in diabetic rats) (diabetic rats; [5]): Effects of single administrations were observed
neuropathic pain in diabetic rats (diabetic rats): can reverse neuropathic pain
CFA (effect on tactile hyperalgesia) ([1]; po, 5 d loading): +ve
CFA, effective dose ([1]; po, 5 d loading): 5 to 10 mg
CFA (effect on tactile hyperalgesia) ([1]; po, acute single): efficacious and +ve
CFA, effective dose ([1]; po, acute single): 20 to 40 mg/kg
CFA, required dose range ([1]; po, daily dosing for 5 consecutive days): 5 to 10 mg/kg
CFA (effect on tactile hyperalgesia) ([1]; sc, acute single): attenuated CFA-induced tactile hyperalgesia and +ve
activity in CFA model of hyperalgesia [1]: active
